Results as given in the NIST ThermoML archive (doi:10.1021/je030136n).
Numbers after ± are expanded uncertainties.

How the values were obtained:
[1] = Liquid, Pulse-echo method
[2] = xn = mol fraction of the nth substance listed; settings: Liquid, Pulse-echo method, x1 = 1

CCCCCCC [heptane]
[1]
Settings	speed of sound [m/s]
293.1 K, 111450 kPa	1674.3 ± 1.3
293.15 K, 100 kPa	1151.7 ± 1.1
293.16 K, 121580 kPa	1707.1 ± 1.4
293.18 K, 30400 kPa	1341.5 ± 1.2
293.19 K, 45590 kPa	1416.6 ± 1.2
293.2 K, 15200 kPa	1256.3 ± 1.1
293.2 K, 60790 kPa	1484.5 ± 1.2
293.2 K, 75990 kPa	1546.5 ± 1.3
293.2 K, 91190 kPa	1603.7 ± 1.3
293.2 K, 101320 kPa	1639.7 ± 1.3
298.11 K, 75990 kPa	1531.6 ± 1.3
298.13 K, 111450 kPa	1660.5 ± 1.5
298.14 K, 121580 kPa	1692.4 ± 1.4
298.15 K, 91190 kPa	1589.4 ± 1.3
298.16 K, 100 kPa	1129.9 ± 1.1
298.16 K, 101320 kPa	1625.7 ± 1.3
298.16 K, 111450 kPa	1660.4 ± 1.5
298.18 K, 45590 kPa	1400.1 ± 1.2
298.19 K, 60790 kPa	1468.7 ± 1.2
303.06 K, 100 kPa	1108.9 ± 1.1
303.07 K, 45590 kPa	1384.4 ± 1.2
303.1 K, 101320 kPa	1612.6 ± 1.3
303.1 K, 121580 kPa	1681.2 ± 1.3
303.13 K, 30400 kPa	1307 ± 1.2
303.15 K, 111450 kPa	1647.6 ± 1.3
303.17 K, 15200 kPa	1218.6 ± 1.1
303.17 K, 75990 kPa	1517.2 ± 1.3
303.18 K, 60790 kPa	1453.7 ± 1.2
303.18 K, 91190 kPa	1575.7 ± 1.3
308.07 K, 30400 kPa	1290.3 ± 1.2
308.07 K, 45590 kPa	1368.7 ± 1.2
308.08 K, 100 kPa	1087.4 ± 1.1
308.08 K, 15200 kPa	1200.4 ± 1.1
308.11 K, 91190 kPa	1562.4 ± 1.3
308.12 K, 60790 kPa	1439 ± 1.2
308.12 K, 75990 kPa	1503.2 ± 1.3
308.17 K, 121580 kPa	1668.6 ± 1.4
308.21 K, 111450 kPa	1634.6 ± 1.3
308.24 K, 101320 kPa	1599.1 ± 1.3
313.1 K, 100 kPa	1066.1 ± 1.1
313.1 K, 15200 kPa	1182 ± 1.1
313.1 K, 75990 kPa	1489.2 ± 1.2
313.12 K, 30400 kPa	1273.3 ± 1.1
313.12 K, 45590 kPa	1353 ± 1.2
313.12 K, 60790 kPa	1424.3 ± 1.2
313.13 K, 91190 kPa	1549 ± 1.3
313.13 K, 121580 kPa	1656.4 ± 1.4
313.2 K, 111450 kPa	1622 ± 1.3
313.21 K, 101320 kPa	1586.2 ± 1.3
318.09 K, 75990 kPa	1475.5 ± 1.3
318.15 K, 91190 kPa	1535.7 ± 1.3
318.17 K, 45590 kPa	1337.4 ± 1.2
318.17 K, 60790 kPa	1409.6 ± 1.2
318.17 K, 121580 kPa	1644.3 ± 1.4
318.18 K, 100 kPa	1044.5 ± 1.1
318.18 K, 15200 kPa	1163.4 ± 1.1
318.18 K, 30400 kPa	1256.5 ± 1.2
318.18 K, 101320 kPa	1573.6 ± 1.3
318.18 K, 111450 kPa	1609.8 ± 1.3

CCCO [propan-1-ol]
[1]
Settings	speed of sound [m/s]
293.12 K, 15200 kPa	1308.5 ± 1
293.16 K, 121580 kPa	1699.1 ± 1.2
293.17 K, 111450 kPa	1669.9 ± 1.2
293.18 K, 101320 kPa	1639.5 ± 1.2
293.19 K, 100 kPa	1223 ± 1
293.2 K, 75990 kPa	1557.2 ± 1.1
293.2 K, 91190 kPa	1607.6 ± 1.2
293.21 K, 45590 kPa	1444.2 ± 1.1
293.21 K, 60790 kPa	1502.8 ± 1.1
293.22 K, 30400 kPa	1379.9 ± 1.1
298.11 K, 15200 kPa	1292.9 ± 1
298.12 K, 100 kPa	1205.9 ± 1
298.14 K, 45590 kPa	1430.7 ± 1.1
298.14 K, 60790 kPa	1490 ± 1.1
298.14 K, 75990 kPa	1544.9 ± 1.1
298.14 K, 91190 kPa	1595.8 ± 1.2
298.14 K, 101320 kPa	1628 ± 1.2
298.14 K, 111450 kPa	1658.8 ± 1.2
298.14 K, 121580 kPa	1688.2 ± 1.2
298.15 K, 30400 kPa	1365.6 ± 1.1
303.12 K, 100 kPa	1188.7 ± 1
303.13 K, 45590 kPa	1417 ± 1.1
303.14 K, 15200 kPa	1277.3 ± 1
303.15 K, 75990 kPa	1532.5 ± 1.1
303.17 K, 91190 kPa	1584 ± 1.2
303.17 K, 101320 kPa	1616.5 ± 1.2
303.18 K, 121580 kPa	1677.4 ± 1.2
303.19 K, 111450 kPa	1647.5 ± 1.2
303.2 K, 60790 kPa	1477 ± 1.1
303.24 K, 30400 kPa	1350.9 ± 1.1
308.11 K, 121580 kPa	1667 ± 1.2
308.12 K, 75990 kPa	1520.4 ± 1.1
308.13 K, 30400 kPa	1336.8 ± 1.1
308.13 K, 45590 kPa	1403.7 ± 1.1
308.13 K, 60790 kPa	1464.5 ± 1.1
308.16 K, 111450 kPa	1636.7 ± 1.2
308.19 K, 101320 kPa	1605.1 ± 1.2
308.2 K, 100 kPa	1171.4 ± 1
308.2 K, 15200 kPa	1263.6 ± 1
308.2 K, 91190 kPa	1572.4 ± 1.2
313.15 K, 91190 kPa	1561.1 ± 1.2
313.15 K, 101320 kPa	1594.1 ± 1.2
313.16 K, 15200 kPa	1248.7 ± 1
313.16 K, 30400 kPa	1322.6 ± 1.1
313.16 K, 45590 kPa	1390.4 ± 1.1
313.16 K, 75990 kPa	1508.5 ± 1.1
313.17 K, 100 kPa	1154.5 ± 1
313.17 K, 60790 kPa	1451.8 ± 1.1
313.17 K, 121580 kPa	1656.2 ± 1.2
313.22 K, 111450 kPa	1625.8 ± 1.2
318.11 K, 101320 kPa	1583.3 ± 1.2
318.12 K, 60790 kPa	1439.6 ± 1.1
318.12 K, 75990 kPa	1496.8 ± 1.1
318.12 K, 91190 kPa	1549.9 ± 1.2
318.14 K, 45590 kPa	1377.4 ± 1.1
318.16 K, 30400 kPa	1308.7 ± 1.1
318.17 K, 111450 kPa	1615.3 ± 1.2
318.17 K, 121580 kPa	1646 ± 1.2
318.2 K, 100 kPa	1137.5 ± 1

CCCO [propan-1-ol] + CCCCCCC
[2]
Settings	speed of sound [m/s]
293.12 K, 15200 kPa	1308.5 ± 1
293.16 K, 121580 kPa	1699.1 ± 1.2
293.17 K, 111450 kPa	1669.9 ± 1.2
293.18 K, 101320 kPa	1639.5 ± 1.2
293.19 K, 100 kPa	1223 ± 1
293.2 K, 75990 kPa	1557.2 ± 1.1
293.2 K, 91190 kPa	1607.6 ± 1.2
293.21 K, 45590 kPa	1444.2 ± 1.1
293.21 K, 60790 kPa	1502.8 ± 1.1
293.22 K, 30400 kPa	1379.9 ± 1.1
298.11 K, 15200 kPa	1292.9 ± 1
298.12 K, 100 kPa	1205.9 ± 1
298.14 K, 45590 kPa	1430.7 ± 1.1
298.14 K, 60790 kPa	1490 ± 1.1
298.14 K, 75990 kPa	1544.9 ± 1.1
298.14 K, 91190 kPa	1595.8 ± 1.2
298.14 K, 101320 kPa	1628 ± 1.2
298.14 K, 111450 kPa	1658.8 ± 1.2
298.14 K, 121580 kPa	1688.2 ± 1.2
298.15 K, 30400 kPa	1365.6 ± 1.1
303.12 K, 100 kPa	1188.7 ± 1
303.13 K, 45590 kPa	1417 ± 1.1
303.14 K, 15200 kPa	1277.3 ± 1
303.15 K, 75990 kPa	1532.5 ± 1.1
303.17 K, 91190 kPa	1584 ± 1.2
303.17 K, 101320 kPa	1616.5 ± 1.2
303.18 K, 121580 kPa	1677.4 ± 1.2
303.19 K, 111450 kPa	1647.5 ± 1.2
303.2 K, 60790 kPa	1477 ± 1.1
303.24 K, 30400 kPa	1350.9 ± 1.1
308.11 K, 121580 kPa	1667 ± 1.2
308.12 K, 75990 kPa	1520.4 ± 1.1
308.13 K, 30400 kPa	1336.8 ± 1.1
308.13 K, 45590 kPa	1403.7 ± 1.1
308.13 K, 60790 kPa	1464.5 ± 1.1
308.16 K, 111450 kPa	1636.7 ± 1.2
308.19 K, 101320 kPa	1605.1 ± 1.2
308.2 K, 100 kPa	1171.4 ± 1
308.2 K, 15200 kPa	1263.6 ± 1
308.2 K, 91190 kPa	1572.4 ± 1.2
313.15 K, 91190 kPa	1561.1 ± 1.2
313.15 K, 101320 kPa	1594.1 ± 1.2
313.16 K, 15200 kPa	1248.7 ± 1
313.16 K, 30400 kPa	1322.6 ± 1.1
313.16 K, 45590 kPa	1390.4 ± 1.1
313.16 K, 75990 kPa	1508.5 ± 1.1
313.17 K, 100 kPa	1154.5 ± 1
313.17 K, 60790 kPa	1451.8 ± 1.1
313.17 K, 121580 kPa	1656.2 ± 1.2
313.22 K, 111450 kPa	1625.8 ± 1.2
318.11 K, 101320 kPa	1583.3 ± 1.2
318.12 K, 60790 kPa	1439.6 ± 1.1
318.12 K, 75990 kPa	1496.8 ± 1.1
318.12 K, 91190 kPa	1549.9 ± 1.2
318.14 K, 45590 kPa	1377.4 ± 1.1
318.16 K, 30400 kPa	1308.7 ± 1.1
318.17 K, 111450 kPa	1615.3 ± 1.2
318.17 K, 121580 kPa	1646 ± 1.2
318.2 K, 100 kPa	1137.5 ± 1
